Source: patent US4473578A, “β-Lactam antibiotics and their use” (Beecham Group Limited, priority 1979, dated 1984)
Counter-ions that a name gives are not always drawn.

What was measured:
Assay in all cases: MIC in agar
Type in all cases: cell-based
Bacillus subtilis A = details: in agar; Bacillus subtilis A; read-out: M.I.C.
Excerpt: (§1) a. Antibacterial effectiveness of compounds of
(§2) Examples 6 and 7 in agar.
(§3) (μg/ml) in agar of compound

Citrobacter freundii E8 = details: in agar; Citrobacter freundii E8; read-out: M.I.C.
Excerpt: as §1, §2, §3

Enterobacter cloacae N1 = details: in agar; Enterobacter cloacae N1; read-out: M.I.C.
Excerpt: as §1, §2, §3

Escherichia coli 0111 = tested on: Escherichia coli 0111
Excerpt: as §1, §2, §3

Escherichia coli JT39 = details: in agar; Escherichia coli JT39; read-out: M.I.C.
Excerpt: as §1, §2, §3

Klebsiella aerogenes A = details: in agar; Klebsiella aerogenes A; read-out: M.I.C.
Excerpt: as §1, §2, §3

Proteus mirabilis C977 = details: in agar; Proteus mirabilis C977; read-out: M.I.C.
Excerpt: as §1, §2, §3

Proteus morganii 1580 = details: Morganella morganii; in agar; Proteus morganii 1580; read-out: M.I.C.
Excerpt: as §1, §2, §3

Proteus rettgeri WM16 = details: Providencia rettgeri; in agar; Proteus rettgeri WM16; read-out: M.I.C.
Excerpt: as §1, §2, §3

Proteus vulgaris W091 = details: in agar; Proteus vulgaris W091; read-out: M.I.C.
Excerpt: as §1, §2, §3

Pseudomonas aeruginosa A = details: in agar; Pseudomonas aeruginosa A; read-out: M.I.C.
Excerpt: as §1, §2, §3

[1] = tested on: Salmonella typhimurium CT10; details: Salmonella enterica; in agar; Salmonella typhimurium CT10; read-out: M.I.C.
Excerpt: as §1, §2, §3

Serratia marcescens US20 = details: in agar; Serratia marcescens US20; read-out: M.I.C.
Excerpt: as §1, §2, §3

Shigella sonnei MB 11967 = details: MB11967
Excerpt: as §1, §2, §3

[2] = tested on: Staphylococcus aureus 1517; details: in agar; Staphylococcus aureus 1517; read-out: M.I.C.
Excerpt: as §1, §2, §3

[3] = tested on: Staphylococcus aureus Oxford; details: in agar; Staphylococcus aureus Oxford; read-out: M.I.C.
Excerpt: as §1, §2, §3

[4] = tested on: Staphylococcus aureus Russell; details: in agar; Staphylococcus aureus Russell; read-out: M.I.C.
Excerpt: as §1, §2, §3

Streptococcus faecalis I = details: Enterococcus faecalis; in agar; Streptococcus faecalis I; read-out: M.I.C.
Excerpt: as §1, §2, §3

[5] = tested on: Streptococcus pneumoniae CN33
Excerpt: as §1, §2, §3

[6] = tested on: Streptococcus pyogenes CN10; details: in agar; Streptococcus pyogenes CN10; read-out: M.I.C.
Excerpt: as §1, §2, §3

E. coli ESS = details: Escherichia coli
Excerpt: | (μg/ml) in agar of compound

Measured: MIC

C[C@H](O)[C@@H]1C(=O)N2C(C(=O)O)=C(S/C=C\C(=O)O)C[C@H]12 [Example 24, The Disodium salt of (5R,6R)-3-[(Z)-2-carboxyethenylthio]-6-[(S)-1-hydroxyethyl]-7-oxo-1-azabicyclo[3.2.0]hept-2-ene-2-carboxylic acid]
1.2 µg/mL: Citrobacter freundii E8
0.2 µg/mL: Escherichia coli 0111 | Klebsiella aerogenes A
2.5 µg/mL: Serratia marcescens US20 | Streptococcus faecalis I
> 50 µg/mL: Pseudomonas aeruginosa A
≤ 0.1 µg/mL: Bacillus subtilis A | [5] | [6] | E. coli ESS
5 µg/mL: Escherichia coli JT39 | [2]
0.5 µg/mL: all other assays above
